Assay results: patent US20040033982A1, “Viral inhibition by n-docosanol” (priority 2001, published 2004)
Entries after “also recorded” stand apart in the source; their conditions may differ. Like-named read-outs stand apart in the source and are kept apart here.

Assays:
HSV = assay: Direct viricidal activity (virus mixed with suspension, infectivity recovered)
Procedure: Extensive studies designed to delineate the mechanism by which n-docosanol exerts its antiviral activity were conducted. The collective implications of the results of the studies are that the compound appears to interfere with one or more of the common pathways of viral entry into the cell and migration to the nucleus of infected target cells.
Instead, the drug apparently modifies the target cell in a manner that inhibits viral replication.

Vero cells = assay: Cellular uptake, distribution and metabolism of radiolabeled n-docosanol; assay type: in vitro ADME, African Green monkey
Procedure: FIG. 10 depicts data showing that radioactive metabolites of n-[^14C]docosanol display the properties of phosphatidylcholine and phosphatidylethanolamine. A portion (0.5 ml) of the methanol eluate of the silica lipid fractionation was evaporated under nitrogen, resuspended in 20 μl chloroform:methanol (3:2; v:v) and spotted on a silica thin layer chromatography (TLC) sheet. After development with chloroform:methanol:acetic acid:water (60:50:1:4; v:v:v:v), the positions of standards were determined by staining with iodine vapors and the cpm per fraction determined by scintillation spectrometry after cutting the plastic-backed sheet into 5 mm strips.
FIG. 11 depicts data showing that n-[^14C]-Docosanol is metabolized more by Vero cells than by MDBK cells. Vero or MDBK cells were plated as described. n-[^14C]-docosanol was added to […] (0.24 mM Tetronic 908) and the cultures were incubated 72 hours at 37° C./CO2. Cells were extracted and analyzed on TLC with hexane:diethyl ether:acetic acid (20:30:1; v:vv) as the developing solvent. With this solvent system the polar phosphatides remain at the origin. The position of migration of n-[^14C]-docosanol is indicated. Duplicate plates were treated with an identical suspension lacking the radioactive label, and the numbers of cells in these duplicate plates were determined by counting cells excluding trypan blue with a hemocytometer.
In order to better define the precise mechanism by which n-docosanol exerts its antiviral activity, the cellular uptake, distribution, and metabolism of n-docosanol from surfactant-stabilized suspensions has been studied. The results of such studies have provided some interesting insight into the metabolic basis of the compound's antiviral action. It has been shown that radioactively labeled n-docosanol is progressively incorporated into cultured Vero cells, reaching a peak uptake per cell between 6 and 12 hours after exposure. The process is irreversible, since once the compound is cell-associated it cannot be removed even with extensive washing with cesium bromide, which effectively removes nonspecifically associated cell-bound particles.
Nonmetabolized n-docosanol was previously eluted from the silica with chloroform. As shown, approximately 62% of the counts migrated in the region of phosphatidylcholine and 38% migrated in the region of phosphatidylethanolamine.
Of the counts that are metabolized in two cells lines, the relative amounts in the major classes of phosphatides that are formed, phosphatidylcholine and phosphatidylethanolamine, are not different in the two cell lines.

Friend Virus = Friend Virus replication in primary embryo fibroblast cultures; assay type: cell-based
HSV-2 (333) = assay: Entry of HSV-2 (333) into CHO-IEβ8 cells (beta-galactosidase, OD600); assay type: cell-based; settings: for inhibition at 30000 µM: Human alphaherpesvirus 2, 30 mM
Procedure: CHO-IEβ8 cells were seeded into 24-well plates. After cell attachment, heparin, n-docosanol-vehicle, vehicle alone, or no agent (control) was added. Five to six hours after infection, the cells were processed, X-gal was added, and the absorbance at 600 nm was determined.
Twenty-four hours before infection, cultured cells were seeded into 24-well (16-mm) plates at 2.5×10^6 cells/well in 0.5 ml cDMEM supplemented with 10% fetal bovine serum (FES). After cell attachment (4-6 h later) heparin, n-docosanol-surfactant, or surfactant alone was added to the cells in 0.5 ml DMEM/10% FES. The agents were dissolved in the medium at two times the desired final concentration. For infection, 0.7 ml of medium was removed from each well and 25 μl of virus suspension was added to the remaining 0.3 ml to give a virus dose of at least 20 p.f.u./cell The plates were rocked at 37° C. for 3 h and then put in a 37° C. CO2 incubator for another 2-3 h.
At 5-6 h after infection, the cells were fixed with PES containing 2% formaldehyde and 0.2% glutaraldehyde, washed, then permeabilized with 0.02% NP-40, 0.01% deoxycholate and 2 mM MgCl2. After washing again, 5-bromo-4-chloro-3indolyl-β-galactopyranoside (X-gal) was added for development of blue product. The substrate was removed and replaced with 50% glycerol. Plates were photographed. To quantify the amount of color in each well the glycerol was removed from all wells that were then washed 3× with distilled H2O. DMSO (0.6 ml) was added to solubilize the dye and, after transferring 100 μl of each sample well from the 24-well plate to a 96-well plate, the OD600 was recorded using a 96-well plate reader.
n-Docosanol inhibits HSV-2(333) infectivity of CHO-IEβ8 cells. To further narrow the point of inhibition of viral entry in n-docosanol-treated cells, the effects of the drug on entry of HSV-2 into CHO-IEβ8 cells selected by transfection of CHO cells with a plasmid carrying a Pur selectable marker and lacZ under control of the HSV-1 ICP4 promoter was investigated. In this cell line, β-gal expression is induced upon entry of HSV virion proteins into the cell, an event which occurs immediately upon viral entry into the cellular cytoplasm and which is not dependent on virion transport to the nucleus.

HSV-I = assay: Binding of [3H]HSV-I to Vero cells; assay type: cell-based; settings: virus at 2 p.f.u./cell; n-docosanol 15 mM
Description: Attachment of HSV-I to specific cell surface receptors is unaffected in n-docosanol-treated cells. Previous studies have verified that attachment of HSV-1 to specific cell surface receptors is unaffected in n-docosanol-treated cells. […] Heparin inhibited this interaction 96%.

HSV-2 = HSV-2 internalization into Vero cells (citrate buffer wash); assay type: cell-based
Procedure: FIG. 9 depicts data showing that HSV-2 remains on the surface of n-docosanol treated Vero cells for prolonged times. Vero cells were cultured as described in the legend to FIG. 7 and incubated overnight. The cultures were then chilled to 4° C., inoculated with 100 PFU of HSV-2, and incubated 3 hours at 4° C. At time zero the cultures were washed with medium, inoculated with fresh medium (containing the indicated inhibitor) and incubated at 37° C. At each indicated time period, the cultures were washed with citrate buffer (pH 2.5) and reinoculated with fresh medium (lacking inhibitor). After a total of 44 hours incubation the cultures were stained and scored for HSV-2-induced plaques. The data are expressed as geometric means and standard errors derived from triplicate cultures per group.
In this experiment, HSV-2 was incubated with Vero cells in the absence or presence of n-docosanol at 4° C. to allow for receptor binding of the virus. At the end of 3 hours, all cultures were washed and then replated at 37° C. in order to initiate the viral entry process. At 20 minute intervals thereafter, the various cultures were exposed to pH 3.0 citrate buffer, conditions which remove and inactivate surface-bound, but not internalized, HSV virions, and then re-cultured the full 44 hour period required to develop optimal HSV plaques.

[1] = saturating concentrations, within 24 hours

For `CCCCCCCCCCCCCCCCCCCCCCO` [n-docosanol], the direct viricidal activity (HSV) was “no direct viricidal activity; also recorded: does not directly inactivate virus”, the “total uptake and relative metabolic conversion, Vero versus MDBK cells” value (Vero cells) was 3-4 times higher and the “radioactive compound associated with nuclear fractions” value (Vero cells; after 12 hours of exposure) was “less than 1%”. The “radioactive compound contained in cell membranes” value (Vero cells; after 12 hours of exposure) was 75%, the “molecules of n-docosanol added to culture that enter the cell” value (Vero cells; radiolabeled n-docosanol) was “less than 1 out of 1000” and the cell-associated amount (Vero cells; [1]) was ~8×10^9 molecules per cell. For the same compound, the “fraction of total n-docosanol added that becomes cell-associated” value (Vero cells; [1]) was “less than 1%”, the “activity against replication of Friend Virus” value (Friend Virus) was “very potent activity” and the “maximal observed inhibition in comparison to untreated cells” value (HSV-2 (333)) was “approximately 75%”. The “reduction in the expression of β-galactosidase” value (HSV-2 (333)) was at most 80%, the inhibition at 30000 µM (HSV-2 (333); read-out: inhibition of color production compared to Tetronic 908-treated cells) was 55% and the inhibition at 30000 µM (HSV-2 (333); read-out: inhibition of color production compared to untreated cells) was 40%. The “inhibition of [3H]HSV-I binding” value (HSV-I) was “bound normal levels”, the “time for internalization to reach completion” value (HSV-2) was “more than 1 hour” and the “internalization of HSV complete” value (HSV-2; 20 minutes after the shift to 37° C.) was “less than 40%”.
